From EP4722207A1, “OXOISOINDOLINYL-SUBSTITUTED TETRAHYDROPYRIMIDINEDIONE DERIVATIVE AND USE THEREOF” (Gluetacs Therapeutics (Shanghai) Co., Ltd., priority 2023, dated 2024)

Assays:
Format in all cases: cell-based
Conditions in all cases: compounds at 50 nM and 500 nM, 24 hours
[1] = target: T1, CK1α (Homo sapiens, UniProt P48729+Q96SW2); experiment: Western-blot assay, substrate protein degradation in hPBMCs: CK1α
T1 construct: effects of the compounds of the present disclosure on the expression of target proteins in cells; endogenous in cells; host or cells: human PBMCs (hPBMCs)

[2] = target: T2, IKZF3 (Homo sapiens, UniProt Q96SW2+Q9UKT9); experiment: Western-blot assay, substrate protein degradation in hPBMCs: IKZF3
T2 construct: effects of the compounds of the present disclosure on the expression of target proteins in cells; endogenous in cells; host or cells: human PBMCs (hPBMCs)

[3] = target: T3, IKZF1 (Homo sapiens, UniProt Q13422+Q96SW2); experiment: Western-blot assay, substrate protein degradation in hPBMCs: IKZF1
T3 construct: effects of the compounds of the present disclosure on the expression of target proteins in cells; endogenous in cells; host or cells: human PBMCs (hPBMCs)

[4] = target: T4, IKZF2 (Homo sapiens, UniProt Q96SW2+Q9UKS7); experiment: Western-blot assay, substrate protein degradation in hPBMCs: IKZF2
T4 construct: effects of the compounds of the present disclosure on the expression of target proteins in cells; endogenous in cells; host or cells: human PBMCs (hPBMCs)

[5] = target: T5, WEE1 (Homo sapiens, UniProt P30291+Q96SW2); experiment: Western-blot assay, substrate protein degradation in hPBMCs: WEE1
T5 construct: effects of the compounds of the present disclosure on the expression of target proteins in cells; endogenous in cells; host or cells: human PBMCs (hPBMCs)

[6] = target: T6, GSPT1 (Homo sapiens, UniProt P15170+Q96SW2); experiment: Western-blot assay, substrate protein degradation in hPBMCs: GSPT1
T6 construct: effects of the compounds of the present disclosure on the expression of target proteins in cells; endogenous in cells; host or cells: human PBMCs (hPBMCs)
T6 sequence (P15170 whole entry): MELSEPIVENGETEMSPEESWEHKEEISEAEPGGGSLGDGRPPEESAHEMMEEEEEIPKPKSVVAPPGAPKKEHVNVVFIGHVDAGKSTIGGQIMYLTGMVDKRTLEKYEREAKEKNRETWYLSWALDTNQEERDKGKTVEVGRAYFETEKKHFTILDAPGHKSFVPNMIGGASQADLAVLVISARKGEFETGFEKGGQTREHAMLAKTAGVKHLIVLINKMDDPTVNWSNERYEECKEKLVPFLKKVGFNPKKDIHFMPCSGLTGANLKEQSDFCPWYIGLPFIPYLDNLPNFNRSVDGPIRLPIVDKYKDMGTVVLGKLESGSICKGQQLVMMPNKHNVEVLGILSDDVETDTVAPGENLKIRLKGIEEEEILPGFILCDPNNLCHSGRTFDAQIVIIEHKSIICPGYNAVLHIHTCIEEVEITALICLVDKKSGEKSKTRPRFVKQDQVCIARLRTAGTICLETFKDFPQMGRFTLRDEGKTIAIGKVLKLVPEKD
T6 sequence (Q96SW2 whole entry): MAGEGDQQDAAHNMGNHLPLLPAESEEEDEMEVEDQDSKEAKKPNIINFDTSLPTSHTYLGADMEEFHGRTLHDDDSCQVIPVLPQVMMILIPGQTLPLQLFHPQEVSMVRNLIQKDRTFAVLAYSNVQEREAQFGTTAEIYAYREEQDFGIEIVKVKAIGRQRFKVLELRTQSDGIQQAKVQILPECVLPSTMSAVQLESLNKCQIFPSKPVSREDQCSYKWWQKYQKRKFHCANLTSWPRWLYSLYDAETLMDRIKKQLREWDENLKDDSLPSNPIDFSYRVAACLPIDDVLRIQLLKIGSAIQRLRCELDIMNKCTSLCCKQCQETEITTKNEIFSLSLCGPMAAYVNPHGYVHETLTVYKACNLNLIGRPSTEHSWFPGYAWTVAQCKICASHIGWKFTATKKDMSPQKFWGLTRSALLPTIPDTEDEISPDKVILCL
T6 sequence (Q16531 whole entry partner): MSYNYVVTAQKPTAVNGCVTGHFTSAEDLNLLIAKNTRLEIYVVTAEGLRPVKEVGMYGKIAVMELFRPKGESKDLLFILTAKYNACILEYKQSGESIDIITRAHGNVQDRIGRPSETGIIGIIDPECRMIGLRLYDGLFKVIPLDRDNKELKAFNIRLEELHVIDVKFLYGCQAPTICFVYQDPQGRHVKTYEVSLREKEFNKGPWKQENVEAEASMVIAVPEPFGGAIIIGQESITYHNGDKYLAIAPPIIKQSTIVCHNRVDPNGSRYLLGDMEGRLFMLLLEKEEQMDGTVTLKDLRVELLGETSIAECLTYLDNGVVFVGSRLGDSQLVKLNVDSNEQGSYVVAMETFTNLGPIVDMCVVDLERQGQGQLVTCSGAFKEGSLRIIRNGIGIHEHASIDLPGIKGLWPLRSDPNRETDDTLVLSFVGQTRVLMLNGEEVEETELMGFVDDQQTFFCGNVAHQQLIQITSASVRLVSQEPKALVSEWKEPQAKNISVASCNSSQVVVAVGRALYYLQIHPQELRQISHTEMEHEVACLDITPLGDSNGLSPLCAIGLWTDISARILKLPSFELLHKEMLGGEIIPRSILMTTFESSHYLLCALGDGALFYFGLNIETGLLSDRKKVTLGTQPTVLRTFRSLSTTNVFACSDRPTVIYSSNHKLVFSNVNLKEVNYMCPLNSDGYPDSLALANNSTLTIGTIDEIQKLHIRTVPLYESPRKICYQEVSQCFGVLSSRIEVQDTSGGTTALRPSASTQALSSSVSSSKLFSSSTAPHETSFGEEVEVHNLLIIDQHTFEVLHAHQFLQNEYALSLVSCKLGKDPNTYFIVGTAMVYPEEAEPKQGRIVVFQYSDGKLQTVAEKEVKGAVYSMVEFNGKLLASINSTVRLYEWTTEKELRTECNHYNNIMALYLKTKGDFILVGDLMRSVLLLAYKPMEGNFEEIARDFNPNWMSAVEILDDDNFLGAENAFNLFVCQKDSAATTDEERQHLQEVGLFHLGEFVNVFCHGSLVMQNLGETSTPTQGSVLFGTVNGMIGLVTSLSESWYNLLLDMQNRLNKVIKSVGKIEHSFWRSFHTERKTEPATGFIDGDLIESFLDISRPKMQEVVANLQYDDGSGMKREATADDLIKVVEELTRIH

T5 sequence (P30291 whole entry): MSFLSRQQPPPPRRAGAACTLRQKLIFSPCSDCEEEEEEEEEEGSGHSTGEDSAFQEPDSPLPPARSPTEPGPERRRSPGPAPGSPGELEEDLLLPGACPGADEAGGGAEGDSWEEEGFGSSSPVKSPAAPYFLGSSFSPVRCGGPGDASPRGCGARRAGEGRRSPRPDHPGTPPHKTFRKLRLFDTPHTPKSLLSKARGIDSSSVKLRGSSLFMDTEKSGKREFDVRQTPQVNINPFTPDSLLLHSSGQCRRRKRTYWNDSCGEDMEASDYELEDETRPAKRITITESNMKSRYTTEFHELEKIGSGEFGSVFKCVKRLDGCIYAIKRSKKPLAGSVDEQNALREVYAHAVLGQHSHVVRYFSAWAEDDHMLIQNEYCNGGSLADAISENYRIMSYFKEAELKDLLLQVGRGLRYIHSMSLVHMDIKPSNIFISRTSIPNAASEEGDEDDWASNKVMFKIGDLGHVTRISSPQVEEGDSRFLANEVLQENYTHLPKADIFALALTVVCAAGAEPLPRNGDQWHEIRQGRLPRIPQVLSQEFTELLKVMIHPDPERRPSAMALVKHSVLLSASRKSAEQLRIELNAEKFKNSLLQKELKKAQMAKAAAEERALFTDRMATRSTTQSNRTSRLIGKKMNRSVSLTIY
T5 sequence (Q96SW2 whole entry): as the sequence (Q96SW2 whole entry) above
T5 sequence (Q16531 whole entry partner): as the sequence (Q16531 whole entry partner) above
T3 sequence (Q13422 whole entry): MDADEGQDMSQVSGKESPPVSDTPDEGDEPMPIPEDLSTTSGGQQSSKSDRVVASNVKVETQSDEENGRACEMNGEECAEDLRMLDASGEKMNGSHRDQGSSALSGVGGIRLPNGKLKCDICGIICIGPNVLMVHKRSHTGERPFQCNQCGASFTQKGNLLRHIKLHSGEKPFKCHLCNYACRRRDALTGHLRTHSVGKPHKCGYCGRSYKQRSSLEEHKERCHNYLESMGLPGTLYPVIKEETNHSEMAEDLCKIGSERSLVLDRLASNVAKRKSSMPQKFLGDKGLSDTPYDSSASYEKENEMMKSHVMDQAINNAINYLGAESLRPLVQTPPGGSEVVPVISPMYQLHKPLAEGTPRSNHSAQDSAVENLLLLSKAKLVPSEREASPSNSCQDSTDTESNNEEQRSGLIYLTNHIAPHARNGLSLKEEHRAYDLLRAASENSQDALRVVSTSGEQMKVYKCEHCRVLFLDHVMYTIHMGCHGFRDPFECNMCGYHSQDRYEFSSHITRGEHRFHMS
T3 sequence (Q96SW2 whole entry): as the sequence (Q96SW2 whole entry) above
T3 sequence (Q16531 whole entry partner): as the sequence (Q16531 whole entry partner) above
T1 sequence (P48729 whole entry): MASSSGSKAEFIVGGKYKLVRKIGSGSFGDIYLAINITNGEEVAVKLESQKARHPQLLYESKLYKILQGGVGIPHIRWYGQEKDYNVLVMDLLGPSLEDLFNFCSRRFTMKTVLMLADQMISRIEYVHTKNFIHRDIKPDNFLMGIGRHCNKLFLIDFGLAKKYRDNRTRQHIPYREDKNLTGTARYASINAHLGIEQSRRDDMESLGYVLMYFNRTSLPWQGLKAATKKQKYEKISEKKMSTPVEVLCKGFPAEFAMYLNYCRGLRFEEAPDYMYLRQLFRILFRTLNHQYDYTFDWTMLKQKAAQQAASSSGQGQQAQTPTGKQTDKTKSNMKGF
T1 sequence (Q96SW2 whole entry): as the sequence (Q96SW2 whole entry) above
T1 sequence (Q16531 whole entry partner): as the sequence (Q16531 whole entry partner) above
T2 sequence (Q9UKT9 whole entry): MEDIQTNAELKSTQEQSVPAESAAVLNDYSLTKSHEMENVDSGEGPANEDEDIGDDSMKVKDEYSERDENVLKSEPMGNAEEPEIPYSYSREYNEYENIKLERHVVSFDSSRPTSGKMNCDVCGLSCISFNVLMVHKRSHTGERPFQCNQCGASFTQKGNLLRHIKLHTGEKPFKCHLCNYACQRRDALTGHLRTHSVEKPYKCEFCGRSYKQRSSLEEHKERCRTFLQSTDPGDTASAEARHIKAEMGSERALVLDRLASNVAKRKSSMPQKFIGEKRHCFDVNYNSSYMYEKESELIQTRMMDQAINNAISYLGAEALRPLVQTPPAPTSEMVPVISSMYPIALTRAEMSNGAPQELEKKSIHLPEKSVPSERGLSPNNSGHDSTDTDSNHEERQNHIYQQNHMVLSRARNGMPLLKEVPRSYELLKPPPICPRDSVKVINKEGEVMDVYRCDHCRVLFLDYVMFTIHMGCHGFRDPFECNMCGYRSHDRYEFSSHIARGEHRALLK
T2 sequence (Q96SW2 whole entry): as the sequence (Q96SW2 whole entry) above
T2 sequence (Q16531 whole entry partner): as the sequence (Q16531 whole entry partner) above

Structure (SMILES)	CK1α substrate protein remaining % [1]	IKZF3 substrate protein remaining % [2]	IKZF1 substrate protein remaining % [3]	IKZF2 substrate protein remaining % [4]	WEE1 substrate protein remaining % [5]	GSPT1 substrate protein remaining % [6]
O=C1CCN(N2Cc3cc(CN4CCN(c5c(Cl)cncc5Cl)CC4)ccc3C2=O)C(=O)N1 [GT-07032, 1-(5-((4-(3,5-dichloropyridin-4-yl)piperazin-1-yl)methyl)-1-oxoisoindolin-2-yl)dihydropyrimidine-2,4(1H,3H)-dione]	B ("B" is defined as 80%< substrate protein remaining %≤ 100%)	B ("B" is defined as 80%< substrate protein remaining %≤ 100%)	B ("B" is defined as 80%< substrate protein remaining %≤ 100%)	B ("B" is defined as 80%< substrate protein remaining %≤ 100%)	B ("B" is defined as 80%< substrate protein remaining %≤ 100%)	A ("A" is defined as 0% ≤ substrate protein remaining % ≤ 80%)
Cc1cc(N2CCN(Cc3ccc4c(c3)CN(N3CCC(=O)NC3=O)C4=O)CC2)cc(C)n1 [GT-07033, 1-(5-((4-(2,6-dimethylpyridin-4-yl)piperazin-1-yl)methyl)-1-oxoisoindolin-2-yl)dihydropyrimidine-2,4(1H,3H)-dione]	B ("B" is defined as 80%< substrate protein remaining %≤ 100%)	B ("B" is defined as 80%< substrate protein remaining %≤ 100%)	B ("B" is defined as 80%< substrate protein remaining %≤ 100%)	B ("B" is defined as 80%< substrate protein remaining %≤ 100%)	B ("B" is defined as 80%< substrate protein remaining %≤ 100%)	A ("A" is defined as 0% ≤ substrate protein remaining % ≤ 80%)
O=C1CCN(N2C(=O)c3ccc(CN4CCN(c5ncnc(Cl)c5Cl)CC4)cc3C2=O)C(=O)N1 [GT-07034, 5-((4-(5,6-dichloropyrimidin-4-yl)piperazin-1-yl)methyl)-2-(2,4-dioxotetrahydropyrimidin-1(2H)-yl)isoindoline-1,3-dione]	A ("A" is defined as 0% ≤ substrate protein remaining % ≤ 80%)	A ("A" is defined as 0% ≤ substrate protein remaining % ≤ 80%)	A ("A" is defined as 0% ≤ substrate protein remaining % ≤ 80%)	A ("A" is defined as 0% ≤ substrate protein remaining % ≤ 80%)	A ("A" is defined as 0% ≤ substrate protein remaining % ≤ 80%)	A ("A" is defined as 0% ≤ substrate protein remaining % ≤ 80%)
O=C1CCN(N2C(=O)c3ccc(CN4CCN(c5cnnc(Cl)c5Cl)CC4)cc3C2=O)C(=O)N1 [GT-07035, 5-((4-(5,6-dichloropyridazin-4-yl)piperazin-1-yl)methyl)-2-(2,4-dioxotetrahydropyrimidin-1(2H)-yl)isoindoline-1,3-dione]	A ("A" is defined as 0% ≤ substrate protein remaining % ≤ 80%)	A ("A" is defined as 0% ≤ substrate protein remaining % ≤ 80%)	B ("B" is defined as 80%< substrate protein remaining %≤ 100%)	B ("B" is defined as 80%< substrate protein remaining %≤ 100%)	B ("B" is defined as 80%< substrate protein remaining %≤ 100%)	A ("A" is defined as 0% ≤ substrate protein remaining % ≤ 80%)
O=C1CCN(N2C(=O)c3ccc(CN4CCN(c5cc(Cl)nnc5Cl)CC4)cc3C2=O)C(=O)N1 [GT-07036, 5-((4-(3,6-dichloropyridazin-4-yl)piperazin-1-yl)methyl)-2-(2,4-dioxotetrahydropyrimidin-1(2H)-yl)isoindoline-1,3-dione]	B ("B" is defined as 80%< substrate protein remaining %≤ 100%)	B ("B" is defined as 80%< substrate protein remaining %≤ 100%)	B ("B" is defined as 80%< substrate protein remaining %≤ 100%)	B ("B" is defined as 80%< substrate protein remaining %≤ 100%)	B ("B" is defined as 80%< substrate protein remaining %≤ 100%)	A ("A" is defined as 0% ≤ substrate protein remaining % ≤ 80%)
O=C1CCN(N2C(=O)c3ccc(CN4CCN(c5ncncn5)CC4)cc3C2=O)C(=O)N1 [GT-07037, 5-((4-(1,3,5-triazin-2-yl)piperazin-1-yl)methyl)-2-(2,4-dioxotetrahydropyrimidin-1(2H)-yl)isoindoline-1,3-dione]	B ("B" is defined as 80%< substrate protein remaining %≤ 100%)	B ("B" is defined as 80%< substrate protein remaining %≤ 100%)	B ("B" is defined as 80%< substrate protein remaining %≤ 100%)	B ("B" is defined as 80%< substrate protein remaining %≤ 100%)	B ("B" is defined as 80%< substrate protein remaining %≤ 100%)	A ("A" is defined as 0% ≤ substrate protein remaining % ≤ 80%)
O=C1CCN(N2C(=O)c3ccc(CN4CCN(c5c(Cl)cncc5Cl)CC4)cc3C2=O)C(=O)N1 [GT-07038, 5-((4-(3,5-dichloropyridin-4-yl)piperazin-1-yl)methyl)-2-(2,4-dioxotetrahydropyrimidin-1(2H)-yl)isoindoline-1,3-dione]	A ("A" is defined as 0% ≤ substrate protein remaining % ≤ 80%)	A ("A" is defined as 0% ≤ substrate protein remaining % ≤ 80%)	A ("A" is defined as 0% ≤ substrate protein remaining % ≤ 80%)	A ("A" is defined as 0% ≤ substrate protein remaining % ≤ 80%)	A ("A" is defined as 0% ≤ substrate protein remaining % ≤ 80%)	A ("A" is defined as 0% ≤ substrate protein remaining % ≤ 80%)
O=C1CCN(N2Cc3cc(CN4CCN(c5ccnc(Cl)c5F)CC4)ccc3C2=O)C(=O)N1 [GT-07069, 1-(5-((4-(2-chloro-3-fluoropyridin-4-yl)piperazin-1-yl)methyl)-1-oxoisoindolin-2-yl)dihydropyrimidine-2,4(1H,3H)-dione]	B ("B" is defined as 80%< substrate protein remaining %≤ 100%)	B ("B" is defined as 80%< substrate protein remaining %≤ 100%)	B ("B" is defined as 80%< substrate protein remaining %≤ 100%)	B ("B" is defined as 80%< substrate protein remaining %≤ 100%)	A ("A" is defined as 0% ≤ substrate protein remaining % ≤ 80%)	B ("B" is defined as 80%< substrate protein remaining %≤ 100%)
O=C1CCN(N2C(=O)c3ccc(CN4CCN(c5ccncc5)CC4)cc3C2=O)C(=O)N1 [GT-07073, 2-(2,4-dioxotetrahydropyrimidin-1(2H)-yl)-5-((4-(pyridin-4-yl)piperazin-1-yl)methyl)isoindoline-1,3-dione]	B ("B" is defined as 80%< substrate protein remaining %≤ 100%)	B ("B" is defined as 80%< substrate protein remaining %≤ 100%)	B ("B" is defined as 80%< substrate protein remaining %≤ 100%)	B ("B" is defined as 80%< substrate protein remaining %≤ 100%)	A ("A" is defined as 0% ≤ substrate protein remaining % ≤ 80%)	B ("B" is defined as 80%< substrate protein remaining %≤ 100%)
O=C1CCN(N2Cc3cc(CN4CCN(c5cnccn5)CC4)ccc3C2=O)C(=O)N1 [GT-07160, 1-(1-oxo-5-((4-(pyrazin-2-yl)piperazin-1-yl)methyl)isoindolin-2-yl)dihydropyrimidine-2,4(1H,3H)-dione]	A ("A" is defined as 0% ≤ substrate protein remaining % ≤ 80%)	B ("B" is defined as 80%< substrate protein remaining %≤ 100%)	B ("B" is defined as 80%< substrate protein remaining %≤ 100%)	A ("A" is defined as 0% ≤ substrate protein remaining % ≤ 80%)	B ("B" is defined as 80%< substrate protein remaining %≤ 100%)	A ("A" is defined as 0% ≤ substrate protein remaining % ≤ 80%)
Cc1cc(N2CCN(Cc3ccc4c(c3)C(=O)N(N3CCC(=O)NC3=O)C4=O)CC2)ccn1 [GT-07161, 2-(2,4-dioxotetrahydropyrimidin-1(2H)-yl)-5-((4-(2-methylpyridin-4-yl)piperazin-1-yl)methyl)isoindoline-1,3-dione]	B ("B" is defined as 80%< substrate protein remaining %≤ 100%)	B ("B" is defined as 80%< substrate protein remaining %≤ 100%)	B ("B" is defined as 80%< substrate protein remaining %≤ 100%)	A ("A" is defined as 0% ≤ substrate protein remaining % ≤ 80%)	B ("B" is defined as 80%< substrate protein remaining %≤ 100%)	A ("A" is defined as 0% ≤ substrate protein remaining % ≤ 80%)
